In ChEMBL document CHEMBL6153100, “Controlins I-X, Resin Glycosides from the Seeds of Convolvulus tricolor and Their Biological Activities” (J Nat Prod, 2025):
pIC50: −log10 of the molar value. Active and inactive are the calls of the source. The rule behind the calls is not given here.

Assays:
PC-12 = assay: Neuroprotective activity in H2O2-induced oxidative damage in rat PC12 cells assessed as increase in cell survival rate at 1 to 10 uM pre-incubated for 2 hrs followed by H2O2 addition and measured after 24 hrs by MTT assay; format: functional, cell-based; conditions: dose 1-10 µM, time 26.0 hrs
BV-2 = assay: Antineuroinflammatory activity in LPS-induced mouse BV-2 microglial cells assessed as inhibition of nitric oxide production incubated for 24 hrs by Griess reagent assay; format: functional, cell-based; conditions: BV-2, 24 h
Caenorhabditis elegans = assay: Anti-alzheimer activity in transgenic Caenorhabditis elegans UM0001 expressing Amyloid-beta/Tau assessed as decrease in dyskinesia measured for 30 mins by basal slowing response assay; format: functional, organism-based; conditions: dose 1-4 µM

| Structure (SMILES) | Activity (PC-12) | pIC50 (BV-2) | Activity (Caenorhabditis elegans) |
| --- | --- | --- | --- |
| CCCC[C@@H](CCCCCCCCCCC(=O)C=O)O[C@@H]1O[C@H](CO[C@H]2O[C@H](C)[C@@H](O)[C@@H](O)[C@H]2O)[C@@H](O)[C@H](O)[C@H]1O[C@@H]1O[C@H](CO)[C@@H](O)[C@H](O[C@@H]2O[C@H](CO)[C@@H](O)[C@H](O)[C@H]2O)[C@H]1O[C@@H]1O[C@@H](C)[C@H](OC(=O)[C@H](C)[C@@H](C)OC(=O)[C@H](C)[C@@H](C)O[C@@H]2O[C@H](C)[C@@H](O)[C@H](O)[C@H]2O[C@@H]2O[C@H](CO)[C@@H](O)[C@H](O)[C@H]2O)[C@@H](O[C@@H]2O[C@H](CO)[C@@H](O)[C@H](O)[C@H]2O)[C@H]1O | Active |  |  |
| C/C=C(\C)C(=O)OC[C@H]1O[C@@H](O[C@H]2[C@H](O)[C@@H](COC(=O)[C@H](C)[C@@H](C)O)O[C@@H](O[C@H]3[C@H](O[C@@H](CCCC)CCCCCCCCCCC(=O)OC)O[C@H](CO[C@@H]4O[C@H](C)[C@H](O)[C@H](O)[C@H]4O)[C@@H](O)[C@@H]3O)[C@@H]2O[C@@H]2O[C@@H](C)[C@H](OC(=O)[C@H](C)[C@@H](C)OC(=O)[C@H](C)[C@@H](C)O[C@@H]3O[C@H](C)[C@@H](O)[C@H](O)[C@H]3O)[C@@H](O[C@@H]3O[C@H](CO)[C@@H](O)[C@H](O)[C@H]3O)[C@H]2O)[C@H](O)[C@@H](O[C@@H]2O[C@H](CO)[C@@H](O)[C@H](O)[C@H]2O)[C@@H]1O |  | 5.17 | Dose-dependent-effect |
| C/C=C(\C)C(=O)OC[C@H]1O[C@@H](O[C@H]2[C@H](O)[C@@H](CO)O[C@@H](O[C@H]3[C@H](O[C@@H](CCCC)CCCCCCCCCCC(=O)OC)O[C@H](CO[C@@H]4O[C@H](C)[C@H](O)[C@H](O)[C@H]4O)[C@@H](O)[C@@H]3O)[C@@H]2O[C@@H]2O[C@@H](C)[C@H](OC(=O)[C@H](C)[C@@H](C)OC(=O)[C@H](C)[C@@H](C)O[C@@H]3O[C@H](C)[C@@H](O)[C@H](O)[C@H]3O)[C@@H](O[C@@H]3O[C@H](CO)[C@@H](O)[C@H](O)[C@H]3O)[C@H]2O)[C@H](O)[C@@H](O)[C@@H]1O |  | 5.01 |  |
| C/C=C(\C)C(=O)OC[C@H]1O[C@@H](O[C@H]2[C@H](O)[C@@H](COC(=O)[C@H](C)[C@@H](C)O)O[C@@H](O[C@H]3[C@H](O[C@@H](CCCC)CCCCCCCCCCC(=O)OC)O[C@H](CO[C@@H]4O[C@@H](C)[C@H](O)[C@@H](O)[C@H]4O)[C@@H](O)[C@@H]3O)[C@@H]2O[C@@H]2O[C@@H](C)[C@H](OC(=O)[C@H](C)[C@@H](C)OC(=O)[C@H](C)[C@@H](C)O[C@@H]3O[C@H](C)[C@@H](O)[C@H](O)[C@H]3O)[C@@H](O[C@@H]3O[C@H](CO)[C@@H](O)[C@H](O)[C@H]3O)[C@H]2O)[C@H](O)[C@@H](O[C@@H]2O[C@H](CO)[C@@H](O)[C@H](O)[C@H]2O)[C@@H]1O | Active |  | Dose-dependent-effect |
| C/C=C(\C)C(=O)OC[C@H]1O[C@@H](O[C@H]2[C@H](O)[C@@H](CO)O[C@@H](O[C@H]3[C@H](O[C@@H](CCCC)CCCCCCCCCCC(=O)OC)O[C@H](CO[C@@H]4O[C@H](C)[C@H](O)[C@H](O)[C@H]4O)[C@@H](O)[C@@H]3O)[C@@H]2O[C@@H]2O[C@@H](C)[C@H](OC(=O)[C@H](C)[C@@H](C)OC(=O)[C@H](C)[C@@H](C)O[C@@H]3O[C@H](C)[C@@H](O)[C@H](O)[C@H]3O)[C@@H](O[C@@H]3O[C@H](CO)[C@@H](O)[C@H](O)[C@H]3O)[C@H]2O)[C@H](O)[C@@H](O[C@@H]2O[C@H](CO)[C@@H](O)[C@H](O)[C@H]2O)[C@@H]1O | Active | 4.72 |  |
